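Growth conditions: 96-well plates. Treatment: test compound, 48 hours, 5 concentrations. Analysis: linear interpolation between bracketing concentrations; unreached endpoints set to highest concentration. At the TGI there is no net growth.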
Columns and labels:
Assay in all cases: DTP human tumour cell line panel, 48 h
HCT-116 colon = tested on: HCT-116 colon
786-0 renal = tested on: 786-0 renal
MDA-N = tested on: MDA-N
MDA-MB-435 = tested on: MDA-MB-435
OVCAR-5 ovarian = tested on: OVCAR-5 ovarian
EKVX NSCLC = tested on: EKVX NSCLC
SK-OV-3 ovarian = tested on: SK-OV-3 ovarian
HOP-92 NSCLC = tested on: HOP-92 NSCLC
A549 NSCLC = tested on: A549 NSCLC
UACC-257 melanoma = tested on: UACC-257 melanoma
SN12C renal = tested on: SN12C renal
OVCAR-8 ovarian = tested on: OVCAR-8 ovarian
T-47D breast = tested on: T-47D breast
TK-10 renal = tested on: TK-10 renal
HT29 colon = tested on: HT29 colon
OVCAR-3 ovarian = tested on: OVCAR-3 ovarian
NCI/ADR-RES ovarian = tested on: NCI/ADR-RES ovarian
CAKI-1 renal = tested on: CAKI-1 renal
HOP-62 NSCLC = tested on: HOP-62 NSCLC
UACC-62 melanoma = tested on: UACC-62 melanoma
HCT-15 colon = tested on: HCT-15 colon
HCC-2998 colon = tested on: HCC-2998 colon
SW-620 colon = tested on: SW-620 colon
HL-60(TB) leukemia = tested on: HL-60(TB) leukemia
MDA-MB-231 breast = tested on: MDA-MB-231 breast
SNB-75 CNS = tested on: SNB-75 CNS
NCI-H460 lung = tested on: NCI-H460 lung
CCRF-CEM leukemia = tested on: CCRF-CEM leukemia
RPMI-8226 leukemia = tested on: RPMI-8226 leukemia
SR leukemia = tested on: SR leukemia
M14 melanoma = tested on: M14 melanoma
SF-539 CNS = tested on: SF-539 CNS
KM12 colon = tested on: KM12 colon
UO-31 renal = tested on: UO-31 renal
SK-MEL-5 melanoma = tested on: SK-MEL-5 melanoma
IGROV1 ovarian = tested on: IGROV1 ovarian
LOX IMVI melanoma = tested on: LOX IMVI melanoma
SF-268 CNS = tested on: SF-268 CNS
DU-145 prostate = tested on: DU-145 prostate
OVCAR-4 ovarian = tested on: OVCAR-4 ovarian
K-562 leukemia = tested on: K-562 leukemia
SNB-19 CNS = tested on: SNB-19 CNS
U251 CNS = tested on: U251 CNS
COLO 205 colon = tested on: COLO 205 colon
MCF7 breast = tested on: MCF7 breast
SK-MEL-28 melanoma = tested on: SK-MEL-28 melanoma
BT-549 breast = tested on: BT-549 breast
ACHN renal = tested on: ACHN renal
RXF 393 renal = tested on: RXF 393 renal
MOLT-4 leukemia = tested on: MOLT-4 leukemia
A498 renal = tested on: A498 renal
SF-295 CNS = tested on: SF-295 CNS
HS 578T breast = tested on: HS 578T breast
PC-3 prostate = tested on: PC-3 prostate
SK-MEL-2 melanoma = tested on: SK-MEL-2 melanoma
NCI-H226 lung = tested on: NCI-H226 lung
NCI-H23 lung = tested on: NCI-H23 lung
NCI-H522 lung = tested on: NCI-H522 lung
MALME-3M melanoma = tested on: MALME-3M melanoma

Oc1ccc(/C=C/c2ccc3cccc(O)c3n2)cc1O
TGI (HCT-116 colon): 14.5 µM | TGI (786-0 renal): 50.9 µM | TGI (MDA-N): 44.7 µM | TGI (MDA-MB-435): > 100 µM | TGI (OVCAR-5 ovarian): 46.3 µM | TGI (EKVX NSCLC): 30.8 µM | TGI (SK-OV-3 ovarian): > 100 µM | TGI (HOP-92 NSCLC): > 100 µM | TGI (A549 NSCLC): 27.8 µM | TGI (UACC-257 melanoma): 47.3 µM | TGI (SN12C renal): 12.8 µM | TGI (OVCAR-8 ovarian): > 100 µM | TGI (T-47D breast): 6.52 µM | TGI (TK-10 renal): 90.8 µM | TGI (HT29 colon): 37.7 µM | TGI (OVCAR-3 ovarian): 46 µM | TGI (NCI/ADR-RES ovarian): 2.56 µM | TGI (CAKI-1 renal): > 100 µM | TGI (HOP-62 NSCLC): 84.6 µM | TGI (UACC-62 melanoma): 23.8 µM | TGI (HCT-15 colon): > 100 µM | TGI (HCC-2998 colon): 26.9 µM | TGI (SW-620 colon): > 100 µM | TGI (HL-60(TB) leukemia): > 100 µM | TGI (MDA-MB-231 breast): 62.8 µM | TGI (SNB-75 CNS): 9.65 µM | TGI (NCI-H460 lung): 13.9 µM | TGI (CCRF-CEM leukemia): > 100 µM | TGI (RPMI-8226 leukemia): 78 µM | TGI (SR leukemia): 18.6 µM | TGI (M14 melanoma): 7.46 µM | TGI (SF-539 CNS): 9.46 µM | TGI (KM12 colon): 33 µM | TGI (UO-31 renal): 7.71 µM | TGI (SK-MEL-5 melanoma): 13.4 µM | TGI (IGROV1 ovarian): > 100 µM | TGI (LOX IMVI melanoma): 16.5 µM | TGI (SF-268 CNS): > 100 µM | TGI (DU-145 prostate): 12.3 µM | TGI (OVCAR-4 ovarian): > 100 µM | TGI (K-562 leukemia): > 100 µM | TGI (SNB-19 CNS): 20.9 µM | TGI (U251 CNS): 20.6 µM | TGI (COLO 205 colon): 29.6 µM | TGI (MCF7 breast): 93.7 µM | TGI (SK-MEL-28 melanoma): 89.5 µM | TGI (BT-549 breast): 4.03 µM | TGI (ACHN renal): 20.7 µM | TGI (RXF 393 renal): 7.4 µM | TGI (MOLT-4 leukemia): 21.5 µM | TGI (A498 renal): 30 µM | TGI (SF-295 CNS): 76.9 µM | TGI (HS 578T breast): > 100 µM | TGI (PC-3 prostate): 67.6 µM | TGI (SK-MEL-2 melanoma): 36 µM

CC(CCC(=O)O)C1CCC2C3C(O)CC4CC(O)CCC4(C)C3CC(O)C12C (centres undefined)
TGI (HCT-116 colon): > 100 µM | TGI (786-0 renal): > 100 µM | TGI (MDA-N): > 100 µM | TGI (MDA-MB-435): > 100 µM | TGI (OVCAR-5 ovarian): > 100 µM | TGI (EKVX NSCLC): > 100 µM | TGI (SK-OV-3 ovarian): > 100 µM | TGI (HOP-92 NSCLC): > 100 µM | TGI (A549 NSCLC): > 100 µM | TGI (UACC-257 melanoma): > 100 µM | TGI (SN12C renal): > 100 µM | TGI (OVCAR-8 ovarian): > 100 µM | TGI (T-47D breast): > 100 µM | TGI (TK-10 renal): > 100 µM | TGI (HT29 colon): > 100 µM | TGI (OVCAR-3 ovarian): > 100 µM | TGI (NCI/ADR-RES ovarian): > 100 µM | TGI (CAKI-1 renal): > 100 µM | TGI (HOP-62 NSCLC): > 100 µM | TGI (UACC-62 melanoma): > 100 µM | TGI (HCT-15 colon): > 100 µM | TGI (HCC-2998 colon): > 100 µM | TGI (NCI-H226 lung): > 100 µM | TGI (SW-620 colon): > 100 µM | TGI (HL-60(TB) leukemia): > 100 µM | TGI (NCI-H23 lung): > 100 µM | TGI (MDA-MB-231 breast): > 100 µM | TGI (SNB-75 CNS): > 100 µM | TGI (NCI-H460 lung): > 100 µM | TGI (CCRF-CEM leukemia): > 100 µM | TGI (RPMI-8226 leukemia): > 100 µM | TGI (SR leukemia): > 100 µM | TGI (M14 melanoma): > 100 µM | TGI (SF-539 CNS): > 100 µM | TGI (KM12 colon): > 100 µM | TGI (UO-31 renal): > 100 µM | TGI (SK-MEL-5 melanoma): > 100 µM | TGI (IGROV1 ovarian): > 100 µM | TGI (LOX IMVI melanoma): > 100 µM | TGI (SF-268 CNS): > 100 µM | TGI (DU-145 prostate): > 100 µM | TGI (OVCAR-4 ovarian): > 100 µM | TGI (NCI-H522 lung): > 100 µM | TGI (K-562 leukemia): > 100 µM | TGI (SNB-19 CNS): > 100 µM | TGI (MALME-3M melanoma): > 100 µM | TGI (U251 CNS): > 100 µM | TGI (COLO 205 colon): > 100 µM | TGI (MCF7 breast): > 100 µM | TGI (SK-MEL-28 melanoma): > 100 µM | TGI (BT-549 breast): > 100 µM | TGI (ACHN renal): > 100 µM | TGI (RXF 393 renal): > 100 µM | TGI (MOLT-4 leukemia): > 100 µM | TGI (A498 renal): > 100 µM | TGI (SF-295 CNS): > 100 µM | TGI (HS 578T breast): > 100 µM | TGI (PC-3 prostate): > 100 µM | TGI (SK-MEL-2 melanoma): > 100 µM

From PubChem BioAssay (NCI)
